Reference: ChEMBL document CHEMBL1201862, “PubChem BioAssay data set” (2004)
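Grown in 96-well plates, cells were treated for 48 hours with each compound at five concentrations. Insufficient inhibition: endpoint recorded as highest concentration tested. GI50 marks 50% less growth.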 The source made the active and inactive calls. Rule as the data show it: active = GI50 up to about 1.1 µM and inactive = higher.

What was measured:
Test in all cases: growth of human tumour cells (NCI), 48 h
BT-549 = system: BT-549
MDA-N = system: MDA-N
T47D = system: T47D
Hs-578T = system: Hs-578T
DMS-273 = system: DMS-273
LXFL 529 = system: LXFL 529
M19-MEL = system: M19-MEL
KM-20L2 = system: KM-20L2

Measured: GI50

Nc1c(C(=O)Nc2ccc([As](=O)(O)O)cc2)cnc2nnnn12
inactive: BT-549 > 100 µM | MDA-N > 100 µM | T47D > 100 µM

Cc1nn(CN2CCN(C)CC2)c(=S)n1/N=C/c1ccc(-c2ccc(Cl)cc2Cl)o1
inactive: BT-549 > 100 µM | Hs-578T > 100 µM | MDA-N 50.5 µM | T47D 21.2 µM

N/C(=N\c1ccc(Cl)cc1)NS(=O)(=O)c1c(C(F)(F)F)cccc1C(F)(F)F
inactive: BT-549 29.3 µM | Hs-578T 17.9 µM | MDA-N 22.2 µM | T47D 12.5 µM

CCOC(=O)CNC(=O)c1nc[nH]c1/N=N/N(C)C
inactive: DMS-273 > 100 µM | LXFL 529 > 100 µM | M19-MEL > 100 µM

CC(=O)/C(=C/n1c(=S)[nH]c2ccccc21)C(=O)Nc1ccccc1C
inactive: BT-549 > 100 µM | MDA-N > 100 µM | T47D > 100 µM

CC1=C/C(=C2/N=C(N(C)C)SS2)C(C)=N1.[O-][Cl+3]([O-])([O-])O
inactive: DMS-273 > 100 µM | KM-20L2 > 100 µM | LXFL 529 > 100 µM | M19-MEL 10.6 µM

COc1nc2c(nc(N)n2C2OC(CO)C(O)C(O)C2O)c(=O)[nH]1 (stereo not given)
inactive: KM-20L2 > 100 µM | LXFL 529 > 100 µM | M19-MEL > 100 µM

Cn1c2ccccc2c(=O)c2c(O)cc3c(c21)C1OCC(C)(O)C1O3 (stereo not given)
inactive: Hs-578T 6.47 µM | MDA-N > 100 µM | T47D 42.7 µM

S=C(Nc1ccc2c(c1)oc1ccccc12)c1cccs1
inactive: BT-549 39.9 µM | Hs-578T 29.8 µM | MDA-N > 100 µM | T47D 3.37 µM

COc1ccc(OC)c2c(C(=O)O)c(Cc3ccccc3)ccc12
inactive: DMS-273 > 100 µM | KM-20L2 > 100 µM | LXFL 529 > 100 µM | M19-MEL > 100 µM

N#CC(C#N)=Cc1c[nH]c(=O)[nH]c1=O
inactive: BT-549 > 100 µM | Hs-578T > 100 µM | MDA-N > 100 µM | T47D > 100 µM

CC(C)(O)C1COC2=C1C(=O)c1ccccc1C2=O (stereo not given)
inactive: BT-549 18.2 µM | Hs-578T 27 µM | MDA-N 18.6 µM | T47D 33.4 µM

O=C1O/C(=C\c2ccccc2)N(c2ccccc2)C1=O
inactive: BT-549 > 100 µM | Hs-578T > 100 µM | MDA-N > 100 µM | T47D > 100 µM

CCCCCCCCCCCCOC(=S)NC
inactive: DMS-273 19.5 µM | KM-20L2 19.4 µM | LXFL 529 17 µM

Cc1nc2sc(CCl)nn2c(=O)c1Cl
inactive: BT-549 2.73 µM | Hs-578T 19.1 µM | MDA-N 11.4 µM | T47D 13.1 µM

COc1ccc(-n2nnc3c(C#N)c(-c4ccccc4)c(C)n3c2=O)cc1
inactive: BT-549 > 100 µM | Hs-578T > 100 µM | MDA-N > 100 µM | T47D 49.5 µM

CC1(C)CCC[C@@]2(C)C1CC[C@@]1(CO1)[C@@H]2/C=C\C(C=O)CC=O (stereo not given in full)
inactive: BT-549 > 100 µM | Hs-578T > 100 µM | MDA-N > 87.9 µM | T47D 99.3 µM

C#CCNC(Cc1c[nH]cn1)C(=O)O (stereo not given)
inactive: Hs-578T > 100 µM | MDA-N > 100 µM | T47D > 100 µM

COC(C)(C)CCc1[nH]c2ccccc2c1CC(=O)NCCc1cncn1C
inactive: BT-549 > 100 µM | Hs-578T > 100 µM | MDA-N > 100 µM | T47D > 100 µM

OC1NC2Nc3ccccc3NC2NC1O (stereo not given)
inactive: Hs-578T > 100 µM | T47D > 100 µM

COC1C=C(Nc2cccc(Cl)c2)C(=O)C1 (stereo not given)
inactive: DMS-273 50.4 µM | KM-20L2 55.5 µM | LXFL 529 50.8 µM | M19-MEL > 100 µM

Cc1nc(C(N)=S)sc1C(=O)CC(=O)C(=O)Nc1ccc(Br)cc1
inactive: BT-549 > 100 µM | Hs-578T > 100 µM | MDA-N > 100 µM | T47D > 100 µM

CN1C(=O)[C@](C)(Cc2ccc(F)cc2)N(C(=O)OC(C)(C)C)[C@@H]1C(C)(C)C
inactive: BT-549 34.4 µM | MDA-N 37.4 µM | T47D 26.7 µM

COc1cc(/C=C2/SC(c3ccccc3)N(Cc3ccccc3)C2=O)cc(OC)c1OC (stereo not given)
inactive: BT-549 39 µM | Hs-578T 40.6 µM | MDA-N 29.6 µM | T47D 27.2 µM

N#CCCN(CCC#N)CCN(CCN(CCC#N)CCC#N)CCN(CCC#N)CCC#N
inactive: BT-549 > 100 µM | Hs-578T > 100 µM | MDA-N > 100 µM | T47D > 100 µM

CCN(CC)C(=S)N/N=C/c1cc([N+](=O)[O-])ccc1O
inactive: BT-549 4.54 µM | Hs-578T 53.2 µM | MDA-N 5.43 µM | T47D 5.13 µM

COc1ccc(C#CC(=O)O)c(OC)c1
inactive: BT-549 > 100 µM | Hs-578T > 100 µM | MDA-N > 100 µM | T47D > 100 µM

COc1ccc2c(c1)C/C(=C\c1cccc3ccccc13)C2=O
inactive: BT-549 5.26 µM | Hs-578T 84.9 µM
